Results as given in patent publication US20020137929A1, “1 - (3-heterocyclylphenyl) isothiourea, -isourea, -guanidine and -amidine herbicidal agents” (Intellectual Property Department, BASF Aktiengesellschaft, priority 1998, published 2002).

Tests used:
[1] = test system: TRZAWR (Wheat, Winter, cv Riband); assay: Preemergence herbicidal evaluation; format: in vivo, Triticum aestivum; conditions: rated 4-5 weeks after treatment
In short: (§1)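 Test compound, dissolved in aqueous acetone, was sprayed over planted soil cups at an equivalent of about 0.0156 to 0.500 kg/ha; seeds had been mixed with potting soil. Greenhouse growth followed, with visual 0-9 scoring of injury at four to five weeks.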

SETVI (Foxtail, Green) [2] = assay: Postemergence herbicidal evaluation; format: in vivo, Setaria viridis; conditions: postemergence
In short: (§2)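 First, seedlings were raised for around two weeks. Next, test material in 50/50 acetone/water containing 0.5% TWEEN 20 was sprayed through a nozzle at 40 psi, equivalent to about 0.0156–0.500 kg/ha. Finally, after 4–5 weeks in the greenhouse, plants were rated 0–9.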

ECHCG (Barnyardgrass) = assay: Preemergence herbicidal evaluation; format: in vivo, Echinochloa crus-galli; conditions: rated 4-5 weeks after treatment
In short: as §1

CYPIR (Rice Flatsedge) [3] = assay: Postemergence weed control under flooded paddy conditions; format: in vivo, Cyperus iria; conditions: postemergence weeds, rated 3 to 4 weeks after treatment
In short: (§3)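 Herbicidal effect is judged by eye on a 0–9 scale versus control, 3–4 weeks after dosing. Dosing is into flood water kept 1.5–3 cm over the soil, at about 0.0313–0.500 kg/ha in aqueous/acetone 50/50 v/v, on 3–5 cm weeds and 1.5–2.5-leaf rice seedlings.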

ZEAMX (Corn, Field) [4] = assay: Postemergence herbicidal evaluation; format: in vivo, Zea mays; conditions: postemergence
In short: as §2

ZEAMX (Corn, Field) [5] = assay: Preemergence herbicidal evaluation; format: in vivo, Zea mays; conditions: rated 4-5 weeks after treatment
In short: as §1

CYPSE (Flatsedge) [6] = assay: Postemergence weed control under flooded paddy conditions; format: in vivo, Cyperus serotinus; conditions: postemergence weeds, rated 3 to 4 weeks after treatment
In short: as §3

ORYSAT (Rice, Tebonnet) = assay: Postemergence herbicidal evaluation; format: in vivo, Oryza sativa, (L.) Tebonnet; conditions: postemergence
In short: as §2

[7] = test system: ECHORC (Watergrass (Calif.)); assay: Postemergence weed control under flooded paddy conditions; format: in vivo, Echinochloa oryzoides; conditions: postemergence weeds, rated 3 to 4 weeks after treatment
In short: as §3

SETVI (Foxtail, Green) [8] = assay: Preemergence herbicidal evaluation; format: in vivo, Setaria viridis; conditions: rated 4-5 weeks after treatment
In short: as §1

[9] = test system: SAGPY (Arrowhead (Pygmaea)); assay: Postemergence weed control under flooded paddy conditions; format: in vivo, Sagittaria pygmaea; conditions: postemergence weeds, rated 3 to 4 weeks after treatment
In short: as §3

CYPSE (Flatsedge) [10] = assay: Preemergence weed control under flooded paddy conditions; format: in vivo, Cyperus serotinus; conditions: rated 3-4 weeks after treatment
In short: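 Values are visual 0-9 scores against a control for a preemergence application into paddy flood water at about 0.0313 to 0.500 kg/ha. Greenhouse duration was three to four weeks.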

CYPIR (Rice Flatsedge) [11] = assay: as above; format: in vivo, Cyperus iria; conditions: rated 3-4 weeks after treatment
In short: (§4)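 Ratings on a 0-9 visual scale cover stand, vigor, malformation, size, chlorosis and overall appearance relative to a control, taken three to four weeks post-treatment. Application was into flood water over freshly sown silt loam at roughly 0.0313 to 0.500 kg/ha.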

[12] = test system: ECHORC (Watergrass (Calif.)); assay: as above; format: in vivo, Echinochloa oryzoides; conditions: rated 3-4 weeks after treatment
In short: as §4

With `COC(=O)[C@H](Cc1ccccc1)N1C(=O)CS/C1=N/c1cc(-n2c(=O)cc(C(F)(F)F)n(C)c2=O)c(F)cc1Cl` [Compound 72, Methyl α-benzyl-2-{{2-chloro-5-[3,6-dihydro-3-methyl-2,6-dioxo-4-(trifluoromethyl)-1(2H)-pyrimidinyl]-4-fluorophenyl]imino}-4-oxo-3-thiazolidineacetate, L-] the “Preemergence herbicidal rating TRZAWR” value ([1]; rate 0.0156 kg/ha) was 0.0, the “Preemergence herbicidal rating TRZAWR” value ([1]; rate 0.0313 kg/ha) was 0.0 and the “Preemergence herbicidal rating TRZAWR” value ([1]; rate 0.0625 kg/ha) was 0.0. The “Preemergence herbicidal rating TRZAWR” value ([1]; rate 0.1250 kg/ha) was 1.0, the “Preemergence herbicidal rating TRZAWR” value ([1]; rate 0.2500 kg/ha) was 2.0 and the SETVI herbicidal rating (SETVI (Foxtail, Green) [2]; rate 0.0158 kg/ha) was 2.0. The SETVI herbicidal rating (SETVI (Foxtail, Green) [2]; rate 0.0315 kg/ha) was 4.0, the SETVI herbicidal rating (SETVI (Foxtail, Green) [2]; rate 0.0630 kg/ha) was 2.0 and the “Preemergence herbicidal rating ECHCG” value (ECHCG (Barnyardgrass); rate 0.0156 kg/ha) was 0.0. The “Preemergence herbicidal rating ECHCG” value (ECHCG (Barnyardgrass); rate 0.0313 kg/ha) was 0.0, the “Preemergence herbicidal rating ECHCG” value (ECHCG (Barnyardgrass); rate 0.0625 kg/ha) was 0.0 and the “Preemergence herbicidal rating ECHCG” value (ECHCG (Barnyardgrass); rate 0.1250 kg/ha) was 0.0. The “Preemergence herbicidal rating ECHCG” value (ECHCG (Barnyardgrass); rate 0.2500 kg/ha) was 3.0, the “Herbicidal rating CYPIR” value (CYPIR (Rice Flatsedge) [3]; Rate 0.0313 kg/ha) was 6.0 and the “Herbicidal rating CYPIR” value (CYPIR (Rice Flatsedge) [3]; Rate 0.0625 kg/ha) was 6.0. The “Herbicidal rating CYPIR” value (CYPIR (Rice Flatsedge) [3]; Rate 0.1250 kg/ha) was 7.0, the “Herbicidal rating CYPIR” value (CYPIR (Rice Flatsedge) [3]; Rate 0.2500 kg/ha) was 9.0 and the ZEAMX herbicidal rating (ZEAMX (Corn, Field) [4]; rate 0.0158 kg/ha) was 4.0. The ZEAMX herbicidal rating (ZEAMX (Corn, Field) [4]; rate 0.0315 kg/ha) was 4.5, the ZEAMX herbicidal rating (ZEAMX (Corn, Field) [4]; rate 0.0630 kg/ha) was 6.5 and the “Preemergence herbicidal rating ZEAMX” value (ZEAMX (Corn, Field) [5]; rate 0.0156 kg/ha) was 0.0. For the same compound, the “Preemergence herbicidal rating ZEAMX” value (ZEAMX (Corn, Field) [5]; rate 0.0313 kg/ha) was 0.0, the “Preemergence herbicidal rating ZEAMX” value (ZEAMX (Corn, Field) [5]; rate 0.0625 kg/ha) was 0.0 and the “Preemergence herbicidal rating ZEAMX” value (ZEAMX (Corn, Field) [5]; rate 0.1250 kg/ha) was 1.0. For the same compound, the “Preemergence herbicidal rating ZEAMX” value (ZEAMX (Corn, Field) [5]; rate 0.2500 kg/ha) was 1.0, the “Herbicidal rating CYPSE” value (CYPSE (Flatsedge) [6]; Rate 0.0313 kg/ha) was 0.0 and the “Herbicidal rating CYPSE” value (CYPSE (Flatsedge) [6]; Rate 0.0625 kg/ha) was 0.0. The “Herbicidal rating CYPSE” value (CYPSE (Flatsedge) [6]; Rate 0.1250 kg/ha) was 9.0, the “Herbicidal rating CYPSE” value (CYPSE (Flatsedge) [6]; Rate 0.2500 kg/ha) was 9.0 and the ORYSAT herbicidal rating (ORYSAT (Rice, Tebonnet); rate 0.0158 kg/ha) was 3.5. For the same compound, the ORYSAT herbicidal rating (ORYSAT (Rice, Tebonnet); rate 0.0315 kg/ha) was 3.5, the ORYSAT herbicidal rating (ORYSAT (Rice, Tebonnet); rate 0.0630 kg/ha) was 4.5 and the “Herbicidal rating ECHORC” value ([7]; Rate 0.0313 kg/ha) was 9.0. The “Herbicidal rating ECHORC” value ([7]; Rate 0.0625 kg/ha) was 9.0, the “Herbicidal rating ECHORC” value ([7]; Rate 0.1250 kg/ha) was 9.0 and the “Herbicidal rating ECHORC” value ([7]; Rate 0.2500 kg/ha) was 9.0. For the same compound, the “Preemergence herbicidal rating SETVI” value (SETVI (Foxtail, Green) [8]; rate 0.0156 kg/ha) was 0.0, the “Preemergence herbicidal rating SETVI” value (SETVI (Foxtail, Green) [8]; rate 0.0313 kg/ha) was 0.0 and the “Preemergence herbicidal rating SETVI” value (SETVI (Foxtail, Green) [8]; rate 0.0625 kg/ha) was 0.0. For the same compound, the “Preemergence herbicidal rating SETVI” value (SETVI (Foxtail, Green) [8]; rate 0.1250 kg/ha) was 9.0, the “Preemergence herbicidal rating SETVI” value (SETVI (Foxtail, Green) [8]; rate 0.2500 kg/ha) was 9.0 and the “Herbicidal rating SAGPY” value ([9]; Rate 0.0313 kg/ha) was 4.0. The “Herbicidal rating SAGPY” value ([9]; Rate 0.0625 kg/ha) was 4.0, the “Herbicidal rating SAGPY” value ([9]; Rate 0.1250 kg/ha) was 4.0 and the “Herbicidal rating SAGPY” value ([9]; Rate 0.2500 kg/ha) was 4.0. The “CYPSE herbicidal effect rating” value (CYPSE (Flatsedge) [10]; 0.0313 kg/ha) was 0.0, the “CYPSE herbicidal effect rating” value (CYPSE (Flatsedge) [10]; 0.0625 kg/ha) was 0.0 and the “CYPSE herbicidal effect rating” value (CYPSE (Flatsedge) [10]; 0.1250 kg/ha) was 9.0. For the same compound, the “CYPSE herbicidal effect rating” value (CYPSE (Flatsedge) [10]; 0.2500 kg/ha) was 9.0, the “CYPIR herbicidal effect rating” value (CYPIR (Rice Flatsedge) [11]; 0.0313 kg/ha) was 6.0 and the “CYPIR herbicidal effect rating” value (CYPIR (Rice Flatsedge) [11]; 0.0625 kg/ha) was 6.0. The “CYPIR herbicidal effect rating” value (CYPIR (Rice Flatsedge) [11]; 0.1250 kg/ha) was 7.0, the “CYPIR herbicidal effect rating” value (CYPIR (Rice Flatsedge) [11]; 0.2500 kg/ha) was 9.0 and the “ECHORC herbicidal effect rating” value ([12]; 0.0313 kg/ha) was 9.0. For the same compound, the “ECHORC herbicidal effect rating” value ([12]; 0.0625 kg/ha) was 9.0, the “ECHORC herbicidal effect rating” value ([12]; 0.1250 kg/ha) was 9.0 and the “ECHORC herbicidal effect rating” value ([12]; 0.2500 kg/ha) was 9.0.
